“And” between values parts separate entries of the source, which are not always exact repeats. Identical values can stand only once. Counter-ions that a name gives are not always drawn. Like-named read-outs stand apart in the source and are kept apart here.
Legend:
[1] = biological target: SARS-CoV-2 spike RBD-ACE2 interaction (Homo sapiens, UniProt Q9BYF1); test: biochemical; format: binding; conditions: for IC50: IC50 Biosensor
[2] = test system: COVID-19; conditions: cited from earlier work
[3] = biological target: recombinant sACE2 (Homo sapiens, UniProt Q9BYF1); format: binding
Sequence of recombinant sACE2 (Q9BYF1 19-607): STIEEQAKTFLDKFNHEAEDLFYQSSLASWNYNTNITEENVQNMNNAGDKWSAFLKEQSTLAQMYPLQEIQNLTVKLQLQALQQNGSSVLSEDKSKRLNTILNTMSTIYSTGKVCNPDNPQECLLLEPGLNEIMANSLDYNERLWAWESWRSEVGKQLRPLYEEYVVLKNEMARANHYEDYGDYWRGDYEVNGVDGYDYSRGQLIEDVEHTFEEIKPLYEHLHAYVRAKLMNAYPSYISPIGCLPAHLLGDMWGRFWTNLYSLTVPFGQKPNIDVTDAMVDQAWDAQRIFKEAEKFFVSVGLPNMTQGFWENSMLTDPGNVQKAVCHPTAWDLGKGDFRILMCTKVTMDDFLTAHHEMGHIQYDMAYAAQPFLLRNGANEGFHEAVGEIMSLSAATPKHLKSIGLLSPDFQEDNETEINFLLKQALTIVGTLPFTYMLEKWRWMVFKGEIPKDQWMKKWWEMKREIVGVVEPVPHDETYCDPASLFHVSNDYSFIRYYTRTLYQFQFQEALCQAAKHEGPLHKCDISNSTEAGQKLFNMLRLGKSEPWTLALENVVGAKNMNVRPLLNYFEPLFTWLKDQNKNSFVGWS

[4] = test system: wild-type VSV-GFP; format: cell-based
[5] = test system: SARS-CoV-2 VOCs (Alpha, Beta, Delta, cluster5); format: cell-based
[6] = test system: SARS-CoV-2 (strain 291.3 FR-4286); format: cell-based
[7] = test system: A549-hACE2 cells
[8] = biological target: S1 domain of SARS-CoV-2 spike-ACE2 interaction (Homo sapiens, UniProt Q9BYF1); format: binding
Sequence of S1 domain of SARS-CoV-2 spike-ACE2 interaction (Q9BYF1 18-740): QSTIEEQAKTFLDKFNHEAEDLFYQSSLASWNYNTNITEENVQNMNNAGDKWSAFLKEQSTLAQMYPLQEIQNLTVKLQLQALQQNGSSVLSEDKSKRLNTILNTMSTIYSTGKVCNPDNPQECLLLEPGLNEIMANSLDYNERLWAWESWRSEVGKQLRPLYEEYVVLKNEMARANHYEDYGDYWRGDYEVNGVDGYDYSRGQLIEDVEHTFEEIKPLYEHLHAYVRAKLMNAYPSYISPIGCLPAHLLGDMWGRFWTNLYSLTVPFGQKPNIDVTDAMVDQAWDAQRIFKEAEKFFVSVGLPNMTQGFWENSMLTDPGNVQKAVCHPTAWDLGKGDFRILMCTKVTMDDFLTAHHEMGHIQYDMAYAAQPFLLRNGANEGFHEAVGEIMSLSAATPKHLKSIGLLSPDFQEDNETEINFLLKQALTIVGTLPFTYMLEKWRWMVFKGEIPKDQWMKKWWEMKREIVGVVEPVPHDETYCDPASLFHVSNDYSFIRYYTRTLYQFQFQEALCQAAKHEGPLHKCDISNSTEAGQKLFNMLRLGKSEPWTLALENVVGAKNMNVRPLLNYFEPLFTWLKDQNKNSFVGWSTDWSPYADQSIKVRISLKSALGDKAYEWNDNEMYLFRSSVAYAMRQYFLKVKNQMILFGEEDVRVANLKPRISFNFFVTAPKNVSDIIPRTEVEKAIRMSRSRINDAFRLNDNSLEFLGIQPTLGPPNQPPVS

[9] = mouse, in vivo
[10] = biological target: RBD of SARS-CoV (2002)-ACE2 interaction (Homo sapiens, UniProt Q9BYF1); test: biochemical; format: binding
Sequence of RBD of SARS-CoV (2002)-ACE2 interaction (Q9BYF1 18-740 limits assumed): as the sequence (Q9BYF1 18-740) above

[11] = test system: fusion between spike and ACE2 (HEK293T cells); format: cell-based
[12] = in vivo, 0.016 mg/kg; cited from earlier work
[13] = test system: VSV-Spike (strain 2); conditions: mouse, in vivo
[14] = test system: VeroE6 and VeroAT cells
[15] = test system: VeroE6-hTMPRSS2 cells
[16] = biological target: Recombinant ACE2 (Homo sapiens, UniProt Q9BYF1)
Sequence of Recombinant ACE2 (Q9BYF1 18-805): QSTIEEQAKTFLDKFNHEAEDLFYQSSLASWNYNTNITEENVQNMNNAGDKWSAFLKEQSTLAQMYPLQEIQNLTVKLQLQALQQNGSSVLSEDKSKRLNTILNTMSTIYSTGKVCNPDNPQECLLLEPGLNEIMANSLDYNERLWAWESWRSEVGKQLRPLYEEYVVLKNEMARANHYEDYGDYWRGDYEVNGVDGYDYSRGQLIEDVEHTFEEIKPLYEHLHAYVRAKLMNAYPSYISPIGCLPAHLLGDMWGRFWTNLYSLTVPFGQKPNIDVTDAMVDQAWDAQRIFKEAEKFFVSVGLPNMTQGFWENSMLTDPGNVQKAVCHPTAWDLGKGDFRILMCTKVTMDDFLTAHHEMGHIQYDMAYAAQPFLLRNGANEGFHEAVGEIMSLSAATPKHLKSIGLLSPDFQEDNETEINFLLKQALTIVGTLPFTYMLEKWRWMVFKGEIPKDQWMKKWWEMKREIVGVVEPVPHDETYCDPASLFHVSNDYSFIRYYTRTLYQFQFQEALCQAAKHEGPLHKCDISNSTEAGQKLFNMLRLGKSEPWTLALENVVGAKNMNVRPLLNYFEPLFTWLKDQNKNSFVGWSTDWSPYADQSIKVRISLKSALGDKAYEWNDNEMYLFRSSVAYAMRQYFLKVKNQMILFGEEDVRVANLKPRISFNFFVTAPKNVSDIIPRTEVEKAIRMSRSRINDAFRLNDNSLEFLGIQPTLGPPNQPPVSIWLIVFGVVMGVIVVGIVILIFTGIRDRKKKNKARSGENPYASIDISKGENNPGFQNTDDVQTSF

[17] = test system: SARS-CoV-2; format: cell-based
[18] = test system: SARS-CoV-2-Spike pseudotyped vesicular stomatitis virus (VSV-GFP-Spike); format: cell-based
[19] = test system: SARS-CoV-2 (FR-4286 strain); set-up: species or system K18-hACE2 mice; conditions: mouse, in vivo
[20] = rabbit, in vivo; cited from earlier work
[21] = biological target: wild-type nanoluciferase (Oplophorus gracilirostris, UniProt Q9GV45, A31E/A60N/A81I/F95D/I117V/K70R/L54V/L99Q/M102K/N193R/P142E/Q151K/Q38R/Q45L/V71I/Y165I); format: biochemical; conditions: 4 μM
[22] = test system: LATS biosensor; format: binding; conditions: 4 μM
[23] = Prestwick library screen, 4 μM, compound added to LgBiT-RBD, then SmBiT-ACE2
[24] = Prestwick library screen, 4 μM, compound added to pre-formed RBD:ACE2 complex
[25] = read-out: inhibition of bioreporter signal, SARS-CoV RBD/ACE2, both methods
[26] = method B, newly purchased drugs, 2–25 μM, Figure 2D

Sequence of SARS-CoV-2 spike RBD-ACE2 interaction (Q9BYF1 18-740): as the sequence (Q9BYF1 18-740) above

## Clc1ccc(COC(Cn2ccnc2)c2ccc(Cl)cc2Cl)cc1 (stereo not drawn) [econazole nitrate, econazole nitrate salt]
[1]; [23]
  reduction in bioreporter signal, method B: −23%
[1]; [24]
  reduction in bioreporter signal, method A: −36%

## CCOC1O[C@H]([C@@H](COCc2ccccc2)OCc2ccccc2)[C@H](OCc2ccccc2)[C@H]1O (stereo partly drawn) [tribenoside]
[1]; [23]
  reduction in bioreporter signal, method B: −9%
[1]; [24]
  reduction in bioreporter signal, method A: −21%

## Clc1ccccc1C(c1ccccc1)(c1ccccc1)n1ccnc1 [clotrimazole]
[1]; [24]
  reduction in bioreporter signal, method A: −21%

## CCC(C)n1ncn(-c2ccc(N3CCN(c4ccc(OCC5COC(Cn6cncn6)(c6ccc(Cl)cc6Cl)O5)cc4)CC3)cc2)c1=O (stereo not drawn) [itraconazole]
[2]; administered orally, clinical study
  efficacy in hospitalized individuals: no efficacy

## CC(C)C(=O)OC[C@H]1O[C@@H](n2ccc(NO)nc2=O)[C@H](O)[C@@H]1O [Molnupiravir]
[2]; oral treatment, clinical
  reduction of hospitalization or death: 50%

## c1ccc(-c2ccc(C(c3ccccc3)n3ccnc3)cc2)cc1 (stereo not drawn) [bifonazole]
[3]
  effect on sACE2 unfolding by urea: stabilizes sACE2
[4]
  WT VSV infection (entry): largely unaffected
  WT VSV plaque size: no effect on WT VSV
[5]
  viral RNA levels of VOCs: significant reduction in output of the VOCs
[6]
  spike protein levels (immunoblotting): dramatic reduction in spike protein levels
  viral burden by TCID50 assay: reduced
  viral mRNA levels (qPCR): significant reduction in viral mRNA levels
[7]
  effect on cell viability: no effect on cell viability at the dose tested
[8]
  reduction in binding, ACE2 and S1 domain of spike: ~30%
[9]
  tolerability: well tolerated
[10]; read-out: inhibition of luminescence, SARS-CoV RBD/ACE2, method A
  inhibition at 4 µM: 45%
[10]; read-out: inhibition of luminescence, SARS-CoV RBD/ACE2, method B
  inhibition at 4 µM: 22%
[11]
  fusion of ACE2- and ACE2/TMPRSS2-expressing cells with spike-expressing HEK293T cells: dose-dependent reduction in fusion
[12]
  half-life (t1/2), first phase of biphasic elimination: 7 h
  half-life (t1/2), second phase of biphasic elimination: 42 h
[13]
  reduction in pY705-Stat3 in the lungs: ~50%
  reduction of lethality: 40%
  survival: 2 of 5
  survival of challenged mice: 40%
  viral load in lungs by qRT-PCR: significant reduction in viral load
[14]; African green monkey
  concentration up to which no overt toxicity: up to 100 μM
[15]
  effect on viability: no effect on viability at the antiviral dose tested
[16]
  inhibition of ACE2 enzymatic activity: does not involve inhibition of ACE2 enzymatic activity
[1]
  bioreporter complementation, pre-treatment of ACE2 followed by RBD: complete abrogation of bioreporter complementation and luminescence
  concentration inhibiting WT ACE2 binding to the RBD to similar levels as αRBD: 3.29 µM
  reduction in bioreporter signal, method A: −46%
  reduction in bioreporter signal, method B: −51%
  IC50: 1300 nM and 1600 nM
[1]; read-out: peak inhibition, pre-treatment of RBD followed by ACE2
  inhibition at 4 µM: 50%
[1]; read-out: signal inhibition
  inhibition at 3.29 µM: 80%
[17]
  viral mRNA and infectious particles (TCID50): reduction in viral mRNA as well as infectious particles
[18]
  VSV-Spike plaque size: reduction in VSV-Spike plaque size
  concentration giving spike-specific reduction in viral growth: ~35 µM
  immunofluorescent VSV staining, spike-pseudotyped VSV strains: complete abrogation of VSV staining
  viral entry of pseudotyped VSV-Spike: significant impairment in viral entry
[19]
  survival: 8 of 11
  weight after infection: lost less weight
[20]
  oral doses that could result in embryotoxicity: > 30 mg/kg

## C#C[C@]1(O)CC[C@H]2[C@@H]3CCc4cc(O)ccc4[C@H]3CC[C@@]21C [ethynylestradiol, 17a-ethynylestradiol]
[10]; [25]
  inhibition at 4 µM: 3 to 6%
[1]; [26]
  IC50: 2600 nM

## COC(=O)C1=C(C)NC(C)=C(C(=O)OCCN(C)Cc2ccccc2)C1c1cccc([N+](=O)[O-])c1 (stereo not drawn) [nicardipine, nicardipine HCl]
[10]; [25]
  inhibition at 4 µM: 3 to 6%
[1]; [26]
  IC50: 1900 nM

## COc1cc(N)c(Cl)cc1C(=O)NC1CCN(CCCOc2ccc(F)cc2)CC1OC (stereo not drawn) [cisapride]
[21]
  reduction in luminescence with nanoluciferase on its own: not nanoluciferase on its own
[14]; VeroE6 / VeroAT, 48 h
  toxic at doses of more than: more than 20 μM
[22]
  reduction in luminescence with the LATS biosensor: −13%
[1]; [26]
  IC50: 16500 nM
[18]
  effect on VSV infection: did not affect VSV infection at all concentrations tested

## CC(=O)N1CCN(c2ccc(OCC3COC(Cn4ccnc4)(c4ccc(Cl)cc4Cl)O3)cc2)CC1 (stereo not drawn) [ketoconazole]
[1]; method B, imidazole comparison, Figure 3B
  IC50: 14500 nM
[1]; [24]
  reduction in bioreporter signal, method A: −29%
[18]
  concentration giving spike-specific reduction in viral growth: ~80 µM
